Measured values from patent US10322132B2, “Prevention or treatment of uratic or gouty diseases” (SHANTON PHARMA CO., LTD., priority 2015, dated 2019).

Key:
[1] = system: MSU-induced gouty arthritis; experiment: MSU-induced gouty arthritis, toe volume; assay type: in vivo, Male Wistar rats; conditions: for Inhibition of toe volume change (%): vs model group; for effect on increase of the toe volumes in the test rats (in words): compared with the model group
Experimental: The experiment was done by reference to Hsin-Pai Lee, Shi-Ying Huang, Yen-You Lin. Soft Coral-Derived Lemnalol Alleviates Monosodium Urate-Induced Gouty Arthritis in Rats by Inhibiting Leukocyte Infiltration and iNOS, COX-2 and c-Fos Protein Expression. […] 2013, 11, 99-113.
One gram of uric acid was weighed, introduced into 200 mL of boiling water and heated. Then, NaOH (2 mol/L) was added until pH reached 9. The solution became clear, and was cooled at room temperature and then left still overnight. MSU was obtained after filtration, which was dried at 60° C. for 24 h and then sterilized at a high temperature of 180° C.
The toe volumes of the rats were measured one day prior to the experiment. The rats were administered with the solvent by subcutaneous injection in the model group at a dose of 5 mL/kg, while the rats were administered with test samples by subcutaneous injection in administration groups at a dose of 5 mg/kg. Rats were anesthetized immediately after administration and were injected with 0.09 mL of MSU suspension into the joint cavity of the left ankle. The volume of the left toe was measured in rats 9 h after the injection of MSU into the ankle joint cavity.
The toe volumes of the rats were measured one day prior to the experiment. The rats were administered with the solvent by subcutaneous injection in the model group at a dose of 15 mL/kg, while the rats were administered with test samples by subcutaneous injection in administration groups at a dose of 15 mg/kg or 10 mg/kg. Rats were anesthetized immediately after administration and were injected with 0.09 mL of MSU suspension into the joint cavity of the left ankle. The volume of the left toe was measured in rats 9 h after the injection of MSU into the ankle joint cavity.
The toe volumes of rats were measured one day prior to the experiment. The rats were administered with the solvent by subcutaneous injection in the model group at a dose of 15 mL/kg, while the rats were administered with the test sample by subcutaneous injection in administration group at a dose of 15 mg/kg. Rats were anesthetized immediately after administration and were injected with 0.09 mL of MSU suspension into the joint cavity of the left ankle. The volume of the left toe in each rat was measured 9 h after the injection of MSU into the ankle joint cavity.

[2] = Pharmacokinetics experiment in cynomolgus monkeys, intravenous; assay type: in vivo, cynomolgus monkeys (Macaca fascicularis); conditions: 5 mg/kg, Mean ± SD, n = 3
Experimental: Three non-naïve cynomolgus monkeys were administered with test compounds A, B and D at a dose of 5 mg/kg by intravenous injection and with test compound C at a dose of 3 mg/kg by intravenous injection, with one compound being tested at a time. Blood was collected from the vein before administration and 1 h, 3 h, 6 h and 24 h after administration, and plasma was isolated. The plasma was analyzed by a 4000 Q Trap LC-MS/MS instrument. The concentrations of the test samples were output by Analyst 1.6.1 from AB Company. The parameters ( ) such as the mean, standard deviation, and coefficient of variation were calculated using Microsoft Excel, wherein the values directly output by Analyst 1.6.1 requires no calculation. PK parameters were calculated using Pharsight Phoenix 6.2 software (NCA model).

[3] = system: serum uric acid; experiment: Uric acid-lowering experiment in cynomolgus monkeys; assay type: in vivo; design: Reduction rate of serum uric acid: concentration or dose not given beside the values; conditions: for Reduction rate of serum uric acid / Content of serum uric acid: intravenous; for Reduction rate of serum uric acid: 3 h after administration vs before administration; for Content of serum uric acid: 3 h after administration
Experimental: The experiment was done by reference to Komoriya K, Osada Y, Hasegawa M, Horiuchi H, Kondo S, Couch R C, Griffin T B. Hypouricemic effect of allopurinol and the novel xanthine oxidase inhibitor TEI-6720 in chimpanzees. Eur J Pharmacol. 1993 Dec. 21; 250(3): 455-60.
Each compound was tested in three non-naïve cynomolgus monkeys (1 #, 2 # and 3 #), wherein the monkeys were administered with test samples by intravenous injection. Blood was collected from the vein before administration and 1 h, 3 h, 6 h and 24 h after administration. The blood was left still at room temperature. The serum was collected by centrifugation. The content of uric acid in serum was measured. Reduction rate of serum uric acid=(average uric acid content before administration−average uric acid content after administration)/average uric acid content before administration*100%.

[4] = system: MSU-induced gouty arthritis; experiment: Pain value in rats with gouty arthritis (electronic Von Frey pain threshold detector); assay type: in vivo, Male Wistar rats
Experimental: The rats with gouty arthritis were placed in a metabolic cage, and the palm center of the left foot of each rat was irritated with an electronic Von Frey pain threshold detector. The maximum stress value was recorded when each rat withdrew its foot, and the value was the pain value of that rat.

[5] = biological target: T1, human urate transporter 1 (hURAT1) (Homo sapiens, UniProt Q96S37); experiment: Uptake of 14C-labeled uric acid in hURAT1 transfected cells; assay type: cell-based; conditions: 14C uric acid uptake, hURAT1-transfected HEK-293T cells, 5 min at 37° C.; read-out: IC50 (μM), inhibition of hURAT1 activity
T1 construct: expressed in transfected cells; host or cells: HEK-293T
T1 sequence (Q96S37 1-553): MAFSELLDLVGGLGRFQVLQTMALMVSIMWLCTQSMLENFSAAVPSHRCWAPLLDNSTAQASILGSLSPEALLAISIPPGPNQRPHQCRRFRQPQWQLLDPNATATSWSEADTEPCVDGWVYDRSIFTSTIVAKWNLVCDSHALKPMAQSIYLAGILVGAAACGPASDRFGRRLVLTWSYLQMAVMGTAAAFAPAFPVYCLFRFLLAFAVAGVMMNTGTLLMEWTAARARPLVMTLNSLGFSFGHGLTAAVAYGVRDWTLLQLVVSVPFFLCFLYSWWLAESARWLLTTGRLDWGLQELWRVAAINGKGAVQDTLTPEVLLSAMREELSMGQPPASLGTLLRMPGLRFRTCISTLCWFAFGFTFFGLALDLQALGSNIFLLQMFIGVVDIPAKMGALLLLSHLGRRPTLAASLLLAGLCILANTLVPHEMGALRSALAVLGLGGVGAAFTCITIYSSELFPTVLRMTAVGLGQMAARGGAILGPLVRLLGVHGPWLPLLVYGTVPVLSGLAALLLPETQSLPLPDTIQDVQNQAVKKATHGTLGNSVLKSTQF
Experimental: The compounds were prepared into the stock solutions (5 mM) with dimethyl sulfoxide (DMSO). This experiment involved 8 concentrations in total. The final concentrations were 5000 nM, 1250 nM, 312.5 nM, 78.1 nM, 19.5 nM, 4.9 nM, 1.2 nM and 0.3 nM, respectively.
Preparation of buffers: chlorine-free HBSS buffer (125 mM sodium gluconate, 4.8 mM potassium gluconate, 1.3 mM calcium gluconate, 1.2 mM KH2PO4, 1.2 mM MgSO4, 5.6 mM glucose, 25 mM 4-hydroxyethylpiperazine ethanesulfonic acid (HEPES) (pH 7.4)); lysis buffer (100 mM NaOH)
Transfected cells stably expressing human urate transporter 1 (hURAT1) were obtained by: placing human embryonic kidney cells (HEK-293T) in a cell culture plate containing complete medium, incubating the cells for 24 h at 37° C. in 5% CO2, rinsing the cells with phosphate buffered saline (PBS) followed by trypsin digestion to prepare a suspension containing single cells; placing 8×10^6 cells a cell culture plate, adding dropwise TransIT-293 Reagent:DNA complexes (1.5 ml of Opti-MEM I Reduced-Serum Medium, 15 g of plasmid DNA, and 45 μL of TransIT-293 Reagent were mixed uniformly and then incubated at room temperature for 30 min) to different areas of the cell culture plate, gently shaking the cell culture plate to homogeneously distribute the TransIT-293 Reagent:DNA complexes, and incubating the cells for 48 h at 37° C. in 5% CO2.
Uptake of ^14C-labeled uric acid in hURAT1 transfected cells: (1) hURAT1-transfected cells were placed in a Poly-D-lysine 96-well microplate at a cell density of 6×10^4/well, and left still overnight at 37° C. in 5% CO2; (2) after the cells were placed in the Poly-D-lysine 96-well microplate for 12 h, the cells were washed for 3 times with 200 μl of pre-heated chlorine-free HBSS buffer per well, and the washing solution in the microplate was removed; (3) 50 μl of uric acid-containing [8-14C] […]

[6] = Uric acid-lowering test in monkeys having hyperuricemia (UA subcutaneous injection); assay type: in vivo, cynomolgus monkeys; conditions: cynomolgus monkey, serum, sc; uric acid (UA) by subcutaneous injection at the nape, cynomolgus monkeys from the model group; read-out: half-life (t½z) (converted)
Experimental: The experiment was conducted by reference to Komoriya K, Osada Y, Hasegawa M, Horiuchi H, Kondo S, Couch R C, Griffin T B. Hypouricemic effect of allopurinol and the novel xanthine oxidase inhibitor TEI-6720 in chimpanzees. Eur J Pharmacol. 1993 Dec. 21; 250(3): 455-60.
In the Model group, three non-naïve cynomolgus monkeys (1 #, 2 # and 3 #) were administered with UA by subcutaneous injection at the nape. Blood was collected from the vein before UA administration and 0.5 h, 1 h, 2 h, 4 h, 6 h and 24 h after UA administration. The blood was left still at room temperature. The serum was collected by centrifugation. The content of serum uric acid was measured.
In the Administration group, three non-naïve cynomolgus monkeys (1 #, 2 # and 3 #) were administered with the test sample by intravenous injection after 2 weeks of clearance. Blood was collected from the vein before administration and 2 h after administration of test sample. Then, the monkeys were administered with UA by subcutaneous injection at the nape and blood was collected from the vein 1 h, 2 h and 4 h after the UA administration. The blood was left still at room temperature. The serum was collected by centrifugation. The content of serum uric acid was measured. Reduction rate of serum uric acid in healthy monkeys administered with test sample=(average uric acid content before administration−average uric acid content 2 h after administration of test sample)/average uric acid content before administration*100%, Reduction rate of serum uric acid in monkeys having hyperuricemia after administration of test sample=(uric acid content after UA administration in the model group−uric acid content after UA administration in the administration group)/uric acid content in the model group*(100%).
That was, the samples were collected before administration, 2 h after administration of test sample and 1 h, 2 h and 4 h after UA administration for determination of the serum uric acid content. The contents of serum uric acid in the model group and the administration group and the reduction rates of serum uric acid were shown in the following Tables 3-1, 3-2 and 3-3, respectively.

[7] = Example 6, 15 mg/kg subcutaneous, 9 h after MSU

Compound | Change of toe volume ([1]; Example 4, 5 mg/kg subcutaneous, 9 h after MSU injection into left ankle joint cavity) [mL] | Inhibition of toe volume change (%) ([1]; Example 4, 5 mg/kg subcutaneous, 9 h after MSU) | effect on increase of the toe volumes in the test rats (in words) ([1]; Example 4, 5 mg/kg) | Toe volume change [1, 7] [mL] | Inhibition of toe volume change (%) [1, 7] [%] | effect on increase of the toe volumes in the test rats (in words) ([1]; Example 6, 15 mg/kg) | t1/2z [2] [min] | effect on serum uric acid levels in the test monkeys (in words) ([3]; compared to the levels measured before administration) | Reduction rate of serum uric acid ([3]; animal 1#) [%] | Reduction rate of serum uric acid ([3]; animal 2#) [%] | Reduction rate of serum uric acid ([3]; mean) [%] | Content of serum uric acid ([3]; animal 1#) [µmol/L] | Content of serum uric acid ([3]; animal 2#) [µmol/L] | Content of serum uric acid ([3]; mean) [µmol/L] | Pain value ([4]; Example 6, 15 mg/kg subcutaneous, left foot, Von Frey) [g] | effect on pain in the test rats (in words) ([4]; Example 6, compared with the model group) | IC50 [5] [µM] | half-life [6] [min]
CCCCn1c(=O)[nH]c(=O)c2[nH]c(Cl)nc21 [Compound B, 8-chloro-3-butyl-3,7-dihydro-1H-purine-2,6-dione] | 0.349 | 30.8 | significantly inhibit | 0.229 | 49.1 | significantly inhibit | 163 ± 21 | significantly reduce | 17.5 | 9.2 | 14.1 | 69.1 | 52.3 | 60.7 | 37.2 | significantly reduce | 3.02 | 
O=c1[nH]c(=O)c2[nH]c(=O)[nH]c2[nH]1 [uric acid (UA), uric acid] |  |  |  |  |  |  |  |  |  |  |  |  |  |  |  |  |  | 32.4
